Experimental data: PubChem BioAssay AID792 (PCMD, 2007)
Results filed as inconclusive are left out. Activity calls are given as the source filed them. No rule for the calls is given here.

Target: S. cerevisiae eIF2B mutant, luciferase reporter luminescence
Test: eIF2B reporter inhibitors in yeast strains, dose response, S. cerevisiae, mutant, wild-type, luminescence, growth (AID 792)
[1] = measured here: mutant yeast growth
[2] = S. cerevisiae wild-type, luminescence

Row | SMILES | IC50 | IC50 [1] | IC50 [2]
1 | COc1ccc(OC)c(NC(=O)CNC(=O)Cn2cnc3ccccc3c2=O)c1 | > 100 µM (inactive) | > 100 µM | –
2 | Cc1cc2nnc(SCC(=O)NCc3cccs3)n2c2ccccc12 | > 100 µM (inactive) | > 100 µM | –
3 | Cc1cc(/C([O-])=C(/C(=S)Nc2ccc(F)cc2)[n+]2ccccc2)c(C)n1-c1ccc(F)cc1 | > 100 µM (inactive) | > 100 µM | –
4 | COc1ccc(C(=O)COC(=O)CN2C(=O)NC(C)(C)C2=O)cc1OC | > 100 µM (inactive) | > 100 µM | –
5 | Cc1cc2c(c(=O)n1CC1CCCO1)C(c1ccco1)C(C#N)=C(N)O2 (stereo not given) | > 100 µM (inactive) | > 100 µM | –
6 | CC(=O)c1cnc(Nc2nc(C)c3cc(C)c(C)cc3n2)nc1C | > 100 µM (inactive) | > 100 µM | –
7 | CC(C)NC(=O)CCNS(=O)(=O)c1ccc(Br)cc1 | > 100 µM (inactive) | 24.2 µM | > 100 µM
8 | COCCn1c(-c2ccccc2)cc(C(=O)O)c1C | > 100 µM (inactive) | > 100 µM | –
9 | CCOc1ccccc1N1CC(C(=O)N2CCc3ccccc32)CC1=O (stereo not given) | > 100 µM (inactive) | > 100 µM | –
10 | O=C(NCCC1=CCCCC1)c1ccc(=O)oc1 | > 100 µM (inactive) | > 100 µM | –
11 | Cn1c(=O)[nH]c(=O)c2c1nc(SCC(O)CO)n2Cc1ccccc1Cl (stereo not given) | > 100 µM (inactive) | > 100 µM | –
12 | CCOC(=O)C1(CCSC)NC(c2ccco2)C2C(=O)N(C)C(=O)C21 (stereo not given) | > 100 µM (inactive) | > 100 µM | –
13 | CCCC(=O)Nc1sc(C(=O)OC)c(C)c1C(N)=O | > 100 µM (inactive) | > 100 µM | –
14 | CCn1cc(C(=O)NCC2CCCO2)c(=O)c2cc(S(=O)(=O)N3CCCCC3)ccc21 (stereo not given) | > 100 µM (inactive) | > 100 µM | –
15 | COc1ccccc1CNC(=O)CN(c1ccc(C)cc1)S(=O)(=O)c1c(C)nn(C)c1C | > 100 µM (inactive) | > 100 µM | –
16 | O=C(CCc1ccccc1)Nc1ccc(Cl)cn1 | > 100 µM (inactive) | > 100 µM | –
17 | COc1ccc(C2C=C(c3ccccc3)Nc3nnnn32)cc1 (stereo not given) | > 100 µM (inactive) | > 100 µM | –
18 | Cc1nnc(NC(=O)C2(c3ccccc3)CCOCC2)s1 | > 100 µM (inactive) | > 100 µM | –
19 | Cc1ccc(CN(CC2CCCO2)C(=O)CN2C(=O)C(C(C)C)Oc3ccccc32)o1 (stereo not given) | inactive | 14.2 µM | > 100 µM
20 | O=C(Nc1cccc(-c2cn3cccnc3n2)c1)c1ccc2c(c1)OCO2 | > 100 µM (inactive) | > 100 µM | –
21 | O=c1c(Cl)c(N2CCCCC2)cnn1-c1nc2ccccc2[nH]1 | inactive | > 100 µM | 3.69 µM
22 | COc1ccc(CCNC(=O)c2ccc(N3CCCC3=O)cc2)cc1OC | > 100 µM (inactive) | > 100 µM | > 100 µM
23 | CN1C(=O)N(C)C(=O)C2(Cc3c(nc4ccccn4c3=O)N3CCc4ccccc4C32)C1=O (stereo not given) | > 100 µM (inactive) | > 100 µM | –
24 | N#Cc1c(/N=C/c2cc(Br)cs2)sc2c1CCC2 | > 100 µM (inactive) | > 100 µM | –
25 | COc1ccc(-c2nnn(CC(=O)N(Cc3ccc(F)cc3)C(C(=O)NC3CCCC3)c3ccc(F)cc3)n2)cc1 (stereo not given) | > 100 µM (inactive) | > 100 µM | –
26 | Cc1nc(-c2cccc(S(=O)(=O)N3CC(C)CC(C)C3)c2)cs1 (stereo not given) | > 100 µM (inactive) | > 100 µM | –
27 | Oc1ccc2ccc3cccc[n+]3c2c1 | > 100 µM (inactive) | > 100 µM | > 100 µM
28 | C=CCc1cccc(CNc2nc3ccccc3n2C(C)C)c1O | > 100 µM (inactive) | > 100 µM | –
29 | O=C(NCc1ccco1)c1sc(=S)n2c1[nH]c(=O)c1ccccc12 | > 100 µM (inactive) | > 100 µM | –
30 | CC(=C1C(=O)c2ccccc2C1=O)N1CCN(CCN=Cc2c(O)n(C)c(=O)n(C)c2=O)CC1 | > 100 µM (inactive) | > 100 µM | –
